Test results reported in PubChem BioAssay (NCI).
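Growth conditions: 96-well plates. Treatment: test compound, 48 hours, 5 concentrations. Analysis: linear interpolation between bracketing concentrations; unreached endpoints set to highest concentration. TGI denotes the concentration required for complete inhibition of growth.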

Experiments:
Assay in all cases: NCI tumour cell line growth inhibition, 48 h
786-0 renal = system: 786-0 renal
A549 NSCLC = system: A549 NSCLC
ACHN renal = system: ACHN renal
BT-549 breast = system: BT-549 breast
CAKI-1 renal = system: CAKI-1 renal
CCRF-CEM leukemia = system: CCRF-CEM leukemia
COLO 205 colon = system: COLO 205 colon
DU-145 prostate = system: DU-145 prostate
EKVX NSCLC = system: EKVX NSCLC
HCC-2998 colon = system: HCC-2998 colon
HCT-116 colon = system: HCT-116 colon
HCT-15 colon = system: HCT-15 colon
HL-60(TB) leukemia = system: HL-60(TB) leukemia
HOP-62 NSCLC = system: HOP-62 NSCLC
HOP-92 NSCLC = system: HOP-92 NSCLC
HT29 colon = system: HT29 colon
IGROV1 ovarian = system: IGROV1 ovarian
K-562 leukemia = system: K-562 leukemia
KM12 colon = system: KM12 colon
LOX IMVI melanoma = system: LOX IMVI melanoma
M14 melanoma = system: M14 melanoma
MALME-3M melanoma = system: MALME-3M melanoma
MCF7 breast = system: MCF7 breast
MDA-MB-231 breast = system: MDA-MB-231 breast
MDA-MB-435 = system: MDA-MB-435
MDA-N = system: MDA-N
MOLT-4 leukemia = system: MOLT-4 leukemia
NCI-H226 lung = system: NCI-H226 lung
NCI-H23 lung = system: NCI-H23 lung
NCI-H460 lung = system: NCI-H460 lung
NCI-H522 lung = system: NCI-H522 lung
NCI/ADR-RES ovarian = system: NCI/ADR-RES ovarian
OVCAR-3 ovarian = system: OVCAR-3 ovarian
OVCAR-4 ovarian = system: OVCAR-4 ovarian
OVCAR-5 ovarian = system: OVCAR-5 ovarian
OVCAR-8 ovarian = system: OVCAR-8 ovarian
PC-3 prostate = system: PC-3 prostate
RPMI-8226 leukemia = system: RPMI-8226 leukemia
RXF 393 renal = system: RXF 393 renal
SF-268 CNS = system: SF-268 CNS
SF-295 CNS = system: SF-295 CNS
SF-539 CNS = system: SF-539 CNS
SK-MEL-2 melanoma = system: SK-MEL-2 melanoma
SK-MEL-5 melanoma = system: SK-MEL-5 melanoma
SK-OV-3 ovarian = system: SK-OV-3 ovarian
SN12C renal = system: SN12C renal
SNB-75 CNS = system: SNB-75 CNS
SR leukemia = system: SR leukemia
SW-620 colon = system: SW-620 colon
T-47D breast = system: T-47D breast
TK-10 renal = system: TK-10 renal
U251 CNS = system: U251 CNS
UACC-257 melanoma = system: UACC-257 melanoma
UACC-62 melanoma = system: UACC-62 melanoma
UO-31 renal = system: UO-31 renal
A498 renal = system: A498 renal
SK-MEL-28 melanoma = system: SK-MEL-28 melanoma
SNB-19 CNS = system: SNB-19 CNS

O=C1/C(=C/c2ccco2)N=C(c2ccccc2)N1c1ccc(S(=O)(=O)Nc2nccs2)cc1
TGI (786-0 renal): > 100 µM
TGI (A549 NSCLC): > 100 µM
TGI (ACHN renal): > 100 µM
TGI (BT-549 breast): > 100 µM
TGI (CAKI-1 renal): > 100 µM
TGI (CCRF-CEM leukemia): > 100 µM
TGI (COLO 205 colon): > 100 µM
TGI (DU-145 prostate): > 100 µM
TGI (EKVX NSCLC): > 100 µM
TGI (HCC-2998 colon): > 100 µM
TGI (HCT-116 colon): > 100 µM
TGI (HCT-15 colon): 94.5 µM
TGI (HL-60(TB) leukemia): > 100 µM
TGI (HOP-62 NSCLC): > 100 µM
TGI (HOP-92 NSCLC): > 100 µM
TGI (HT29 colon): > 100 µM
TGI (IGROV1 ovarian): > 100 µM
TGI (K-562 leukemia): > 100 µM
TGI (KM12 colon): > 100 µM
TGI (LOX IMVI melanoma): > 100 µM
TGI (M14 melanoma): > 100 µM
TGI (MALME-3M melanoma): > 100 µM
TGI (MCF7 breast): > 100 µM
TGI (MDA-MB-231 breast): > 100 µM
TGI (MDA-MB-435): > 100 µM
TGI (MDA-N): > 100 µM
TGI (MOLT-4 leukemia): > 100 µM
TGI (NCI-H226 lung): > 100 µM
TGI (NCI-H23 lung): > 100 µM
TGI (NCI-H460 lung): > 100 µM
TGI (NCI-H522 lung): > 100 µM
TGI (NCI/ADR-RES ovarian): > 100 µM
TGI (OVCAR-3 ovarian): > 100 µM
TGI (OVCAR-4 ovarian): > 100 µM
TGI (OVCAR-5 ovarian): > 100 µM
TGI (OVCAR-8 ovarian): > 100 µM
TGI (PC-3 prostate): > 100 µM
TGI (RPMI-8226 leukemia): > 100 µM
TGI (RXF 393 renal): > 100 µM
TGI (SF-268 CNS): > 100 µM
TGI (SF-295 CNS): > 100 µM
TGI (SF-539 CNS): > 100 µM
TGI (SK-MEL-2 melanoma): > 100 µM
TGI (SK-MEL-5 melanoma): > 100 µM
TGI (SK-OV-3 ovarian): > 100 µM
TGI (SN12C renal): > 100 µM
TGI (SNB-75 CNS): > 100 µM
TGI (SR leukemia): > 100 µM
TGI (SW-620 colon): > 100 µM
TGI (T-47D breast): > 100 µM
TGI (TK-10 renal): > 100 µM
TGI (U251 CNS): > 100 µM
TGI (UACC-257 melanoma): 89.5 µM
TGI (UACC-62 melanoma): > 100 µM
TGI (UO-31 renal): > 100 µM

COc1ccc(/C=C2/SC(c3ccc(Cl)cc3)N(NC(=O)CCCCCCCCC(=O)NN3C(=O)/C(=C\c4ccc(OC)c(OC)c4)SC3c3ccc(Cl)cc3)C2=O)cc1OC (stereo not drawn)
TGI (786-0 renal): 76.8 µM
TGI (A498 renal): 82.1 µM
TGI (A549 NSCLC): > 100 µM
TGI (ACHN renal): > 100 µM
TGI (BT-549 breast): > 100 µM
TGI (CAKI-1 renal): > 100 µM
TGI (COLO 205 colon): > 100 µM
TGI (DU-145 prostate): > 100 µM
TGI (EKVX NSCLC): 78.7 µM
TGI (HCC-2998 colon): > 100 µM
TGI (HCT-116 colon): > 100 µM
TGI (HCT-15 colon): > 100 µM
TGI (HOP-62 NSCLC): 57.9 µM
TGI (HOP-92 NSCLC): 48.8 µM
TGI (HT29 colon): > 100 µM
TGI (IGROV1 ovarian): 59.8 µM
TGI (K-562 leukemia): > 100 µM
TGI (KM12 colon): > 100 µM
TGI (M14 melanoma): > 100 µM
TGI (MCF7 breast): > 100 µM
TGI (MDA-MB-231 breast): > 100 µM
TGI (MDA-MB-435): > 100 µM
TGI (MDA-N): 98.4 µM
TGI (MOLT-4 leukemia): > 100 µM
TGI (NCI-H226 lung): > 100 µM
TGI (NCI-H23 lung): 47.1 µM
TGI (NCI-H460 lung): > 100 µM
TGI (NCI/ADR-RES ovarian): > 100 µM
TGI (OVCAR-3 ovarian): > 100 µM
TGI (OVCAR-4 ovarian): > 100 µM
TGI (OVCAR-5 ovarian): > 100 µM
TGI (OVCAR-8 ovarian): > 100 µM
TGI (PC-3 prostate): > 100 µM
TGI (RPMI-8226 leukemia): > 100 µM
TGI (RXF 393 renal): 70.7 µM
TGI (SF-268 CNS): > 100 µM
TGI (SF-295 CNS): 59.9 µM
TGI (SF-539 CNS): 85.5 µM
TGI (SK-MEL-2 melanoma): > 100 µM
TGI (SK-MEL-28 melanoma): > 100 µM
TGI (SK-MEL-5 melanoma): > 100 µM
TGI (SK-OV-3 ovarian): > 100 µM
TGI (SN12C renal): > 100 µM
TGI (SNB-19 CNS): > 100 µM
TGI (SNB-75 CNS): > 100 µM
TGI (SR leukemia): > 100 µM
TGI (SW-620 colon): > 100 µM
TGI (T-47D breast): > 100 µM
TGI (TK-10 renal): > 100 µM
TGI (U251 CNS): > 100 µM
TGI (UACC-257 melanoma): > 100 µM
TGI (UACC-62 melanoma): 89.3 µM
TGI (UO-31 renal): > 100 µM

CC1(C)Cc2c(cnn2-c2ccc(C(F)(F)F)cc2)-c2nc(-c3ccc(O)cc3)[nH]c21
TGI (786-0 renal): 12.6 µM
TGI (A498 renal): 43.7 µM
TGI (A549 NSCLC): 38.6 µM
TGI (ACHN renal): 28.5 µM
TGI (BT-549 breast): 28.5 µM
TGI (CAKI-1 renal): 34.6 µM
TGI (CCRF-CEM leukemia): 11.2 µM
TGI (COLO 205 colon): 35.6 µM
TGI (DU-145 prostate): 31.6 µM
TGI (EKVX NSCLC): 42.9 µM
TGI (HCC-2998 colon): 30 µM
TGI (HCT-116 colon): 28.4 µM
TGI (HCT-15 colon): 25.8 µM
TGI (HL-60(TB) leukemia): 23 µM
TGI (HOP-62 NSCLC): 39.6 µM
TGI (HOP-92 NSCLC): 45.1 µM
TGI (HT29 colon): 17.4 µM
TGI (IGROV1 ovarian): 40.1 µM
TGI (K-562 leukemia): 70.2 µM
TGI (KM12 colon): 33.9 µM
TGI (LOX IMVI melanoma): 43 µM
TGI (M14 melanoma): 33.9 µM
TGI (MALME-3M melanoma): 29.7 µM
TGI (MCF7 breast): 30.7 µM
TGI (MDA-MB-231 breast): 40.7 µM
TGI (MDA-MB-435): 37.8 µM
TGI (MDA-N): 38.6 µM
TGI (MOLT-4 leukemia): 22.7 µM
TGI (NCI-H226 lung): 52.3 µM
TGI (NCI-H23 lung): 41.2 µM
TGI (NCI-H460 lung): 33.2 µM
TGI (NCI-H522 lung): 26.2 µM
TGI (NCI/ADR-RES ovarian): 45 µM
TGI (OVCAR-3 ovarian): 29.4 µM
TGI (OVCAR-4 ovarian): 29.2 µM
TGI (OVCAR-5 ovarian): 39.1 µM
TGI (OVCAR-8 ovarian): 58.2 µM
TGI (PC-3 prostate): 33.3 µM
TGI (RXF 393 renal): 15.6 µM
TGI (SF-268 CNS): 28.5 µM
TGI (SF-295 CNS): 38 µM
TGI (SK-MEL-28 melanoma): 30.9 µM
TGI (SK-MEL-5 melanoma): 34 µM
TGI (SK-OV-3 ovarian): 45.3 µM
TGI (SN12C renal): 31.8 µM
TGI (SNB-19 CNS): 86.1 µM
TGI (SNB-75 CNS): 21 µM
TGI (SR leukemia): 28.7 µM
TGI (SW-620 colon): 51.5 µM
TGI (T-47D breast): 38.5 µM
TGI (TK-10 renal): 35.3 µM
TGI (U251 CNS): 25.2 µM
TGI (UACC-257 melanoma): 34.4 µM
TGI (UACC-62 melanoma): 31 µM
TGI (UO-31 renal): 36.2 µM
